Measurements taken from article PMC7651685 (Psychopharmacology, 2020).
“And” between values parts separate entries of the source, which are not always exact repeats. Equal entries are not always repeated. Structures can show the parent of a compound that is named as a salt.

Columns and labels:
[1] = test system: dopamine transporters (DAT); assay: [18F]-FE-PE2I PET displacement: DAT occupancy, displacement half-time and brain entry (modified GRTM); format: in vivo, rhesus macaques (Macaca mulatta); details: for Brain entry time, Caudate / Brain entry time, Putamen / Brain entry time, Mean: modified GRTM; for Brain entry time, Mean: mean over animals and regions; for Percent maximum displacement (= % DAT occupancy), Caudate\Putamen mean, Mean ± SD: group mean of four animals; for Percent maximum displacement (= % DAT occupancy), Caudate\putamen mean, Mean: mean of two animals
Procedure: Two male and two female rhesus macaques (Macaca mulatta) housed at the Yale University School of Medicine (New Haven, CT) were used for the [^18F]-FE-PE2I imaging. In all experiments, [^18F]-FE-PE2I was administered as a bolus plus constant infusion (Kbol from 168 to 216 min; total radioactivity = 162 ± 27 MBq) over 4 h to establish steady-state DAT binding. Bolus/infusion delivery parameters (i.e., Kbol) for [^18F]-FE-PE2I for each monkey were determined from baseline [^18F]-FE-PE2I scans that utilized single bolus intravenous injections of the radiotracer (Carson et al. [1993]). Identical procedures were used for list-mode image acquisition with a Siemens Focus 220 PET scanner for all DAT brain studies. The dynamic PET imaging series were reconstructed into 57 frames (6 × 0.5 min, 3 × 1 min, 2 × 2 min, and 46 × 5 min) using filtered back projection with standard corrections for random, scatter, and attenuation provided by the camera manufacturer.
At 2 h into the [^18F]-FE-PE2I scan, under tracer steady-state conditions, DAS or MPH was administered i.v. either as a 3 min i.v. bolus or as a bolus plus 4-step infusion over 40 min (four 10-min steps). The drug bolus experiments were carried out in all four rhesus macaques, each receiving DAS at 0.2 and 0.1 mg/kg and MPH at 0.5 and 0.1 mg/kg. The drug bolus plus 4-step infusion experiments were conducted in two rhesus macaques, each receiving DAS bolus injection over 30 s followed by a 4-step infusion over 40 min (four 10-min steps, 1.55, 1.45, 1.4, 1.3 mg) and MPH bolus injection over 30 s followed by an infusion over 40 min (four 10-min steps, 1.15, 1, 0.85, 0.75 mg).
Reconstructed dynamic PET images were transferred and analyzed using the image processing software package PMOD 3.6 (PMOD Technologies, Zurich, Switzerland). The PET images were normalized to an MR rhesus brain template (Rohlfing et al. [2012]) and a region of interest (ROI) atlas including the caudate nucleus, putamen, and cerebellar cortex was applied. Average activity concentration (kBq/cc) within each ROI was determined and time-activity curves (TAC) representing the regional brain activity concentration over time were generated. TACs were additionally expressed in SUV units (g/ml) by normalizing by the weight of the animal and the injected dose.
Reductions in radiotracer binding following administration of DAS or MPH were used to determine DAT occupancy while reductions in radiotracer binding over time were used to estimate brain entry and binding rates. The displacement half-time is defined as the time it takes from drug administration until 50% of maximal tracer displacement is achieved. Tracer displacement half-times were estimated using average uptake levels from the baseline and displacement experiments and expressing the change in standardized uptake values (SUV) units as a fraction (normalized) of the observed SUV difference at the end of the experiment. Normalized SUV values for caudate and putamen respectively were plotted against time for each dose of DAS and MPH respectively to estimate the drug displacement half-time.
Brain entry of DAS and MPH was determined by analyzing the [^18F]-FE-PE2I TACs in the putamen and caudate nucleus using a kinetic model using the cerebellar cortex as a reference region. The kinetic model is based on the generalized reference tissue model (GRTM; Votaw et al. [2002]) and a recent report of brain entry and binding rates measurement (Nicolas et al. [2016]). […] The half-life of the brain entry and binding of the drug was estimated as ln(2)/α. The kinetic model employs 5 parameters: R1, BPND, r, α, and k2′ where R1 is the relative tracer influx rate constant and k2′ is the reference tissue tracer efflux rate constant. The maximum occupancy was constrained to the measured displacement, while k2′ and α were constrained to a common value across the putamen and caudate nucleus.

[2] = cited from earlier work
[3] = 0.1 mg/kg MPH, bolus administration, individual animals A-D
[4] = 0.5 mg/kg MPH, bolus administration, individual animals A-D
[5] = 4.3 mg MPH, bolus + 4 step infusion, individual animals A, B
[6] = MPH 0.1 mg/kg i.v. 3 min bolus, individual animals A-D
[7] = MPH 0.5 mg/kg i.v. 3 min bolus, individual animals A-D
[8] = MPH 4.3 mg, bolus plus 4-step infusion over 40 min, individual animals A, B
[9] = 0.1 mg/kg DAS, bolus administration, individual animals A-D
[10] = 0.2 mg/kg DAS, bolus administration, individual animals A-D
[11] = 6 mg DAS, bolus + 4 step infusion, individual animals A, B
[12] = DAS 0.1 mg/kg i.v. 3 min bolus, individual animals A-D
[13] = DAS 0.2 mg/kg i.v. 3 min bolus, individual animals A-D
[14] = DAS 6.0 mg, bolus plus 4-step infusion over 40 min, individual animals A, B

Structure (SMILES): COC(=O)C(c1ccccc1)C1CCCCN1 (racemic) [MPH, (±)-Methyl α-Phenyl-α-(2-piperidyl)acetate hydrochloride, reference compound]
- Averaged displacement half-time (between caudate and putamen) ([1]; 0.1 mg/kg MPH i.v. bolus): 15.5 min
- Brain entry time, Caudate [1, 3]: 2.57 min and 3.41 min and 2.60 min and 3.44 min
- Brain entry time, Putamen [1, 3]: 2.34 min and 2.59 min and 2.91 min and 4.28 min
- Brain entry time, Mean ([1]; 0.1 mg/kg MPH, bolus administration): 3 min and 3.02 ± 0.65 min and 3.02 min
- Averaged displacement half-time (between caudate and putamen) ([1]; 0.5 mg/kg MPH i.v. bolus): 11.5 min
- Brain entry time, Caudate [1, 4]: 2.25 min and 2.19 min and 1.78 min and 2.65 min
- Brain entry time, Putamen [1, 4]: 2.07 min and 2.08 min and 2.09 min and 2.00 min
- Brain entry time, Mean ([1]; 0.5 mg/kg MPH, bolus administration): 2 min and 2.14 ± 0.25 min and 2.14 min
- Brain entry time, Caudate [1, 5]: 7.15 min and 6.48 min
- Brain entry time, Putamen [1, 5]: 5.77 min and 7.69 min
- Brain entry time, Mean ([1]; 4.3 mg MPH, bolus + 4 step infusion): 6.77 min
- Percent maximum displacement (= % DAT occupancy), Caudate\Putamen mean, Mean ± SD ([1]; MPH 0.1 mg/kg i.v. 3 min bolus): 69% and 68.60 ± 5.21%
- Percent maximum displacement (= % DAT occupancy), Caudate nucleus [1, 6]: 72.4% and 72.7% and 64.2% and 60.4%
- Percent maximum displacement (= % DAT occupancy), Caudate\Putamen mean [1, 6]: 73.1% and 63.6% and 64.6%
- Percent maximum displacement (= % DAT occupancy), Putamen [1, 6]: 73.7% and 73.5% and 62.9% and 68.8%
- Percent maximum displacement (= % DAT occupancy), Caudate\Putamen mean, Mean ± SD ([1]; MPH 0.5 mg/kg i.v. 3 min bolus): 88% and 88.20 ± 2.62%
- Percent maximum displacement (= % DAT occupancy), Caudate nucleus [1, 7]: 91.7% and 87.9% and 83.9% and 87.0%
- Percent maximum displacement (= % DAT occupancy), Caudate\Putamen mean [1, 7]: 91.3% and 88.5% and 84.9% and 88.1%
- Percent maximum displacement (= % DAT occupancy), Putamen [1, 7]: 90.9% and 89.0% and 85.9% and 89.1%
- Percent maximum displacement (= % DAT occupancy), Caudate nucleus [1, 8]: 87.9% and 90.2%
- Percent maximum displacement (= % DAT occupancy), Caudate\Putamen mean [1, 8]: 88.9% and 89.5%
- Percent maximum displacement (= % DAT occupancy), Putamen [1, 8]: 89.9% and 88.9%
- Percent maximum displacement (= % DAT occupancy), Caudate\putamen mean, Mean ([1]; MPH 4.3 mg, bolus plus 4-step infusion over 40 min): 89.2%
- Brain entry faster than DAS ([1]; bolus + 4 step infusion, matched delivery, MPH relative to DAS): ~3 fold
- Displacement of [18F]-FE-PE2I / DAT occupancy faster than DAS (displacement half-times) ([1]; i.v. bolus, MPH relative to DAS): approximately 3 fold
- Time to peak (oral absorption) ([2]; oral, ref Koblan et al. [2016]): 2 to 3 h

Structure (SMILES): N[C@@H]1CC[C@@H](c2ccc(Cl)c(Cl)c2)c2ccccc21 [DAS, (1R,4S)-4-(3,4-dichlorophenyl)-1,2,3,4-tetra-hydronaphthalen-1-amine]
- Averaged displacement half-time (between caudate and putamen) ([1]; 0.1 mg/kg DAS i.v. bolus): 40 min
- Brain entry time, Caudate [1, 9]: 18.91 min and 27.13 min and 25.06 min and 19.23 min
- Brain entry time, Putamen [1, 9]: 15.35 min and 18.83 min and 33.22 min and 19.5 min
- Brain entry time, Mean ([1]; 0.1 mg/kg DAS, bolus administration): 22 min and 22.15 ± 5.85 min and 22.15 min
- Averaged displacement half-time (between caudate and putamen) ([1]; 0.2 mg/kg DAS i.v. bolus): 31 min
- Brain entry time, Caudate [1, 10]: 19.90 min and 19.65 min and 12.09 min and 13.12 min
- Brain entry time, Putamen [1, 10]: 11.47 min and 17.71 min and 12.60 min and 16.03 min
- Brain entry time, Mean ([1]; 0.2 mg/kg DAS, bolus administration): 15 min and 15.32 ± 3.45 min and 15.32 min
- Brain entry time, Caudate [1, 11]: 16.07 min and 16.34 min
- Brain entry time, Putamen [1, 11]: 16.33 min and 18.57 min
- Brain entry time, Mean ([1]; 6 mg DAS, bolus + 4 step infusion): 16.83 min
- Percent maximum displacement (= % DAT occupancy), Caudate\Putamen mean, Mean ± SD ([1]; DAS 0.1 mg/kg i.v. 3 min bolus): 54% and 54.48 ± 10.04%
- Percent maximum displacement (= % DAT occupancy), Caudate nucleus [1, 12]: 56.1% and 49.9% and 40.8% and 53.4%
- Percent maximum displacement (= % DAT occupancy), Caudate\Putamen mean [1, 12]: 61.2% and 52.5% and 41.1% and 63.1%
- Percent maximum displacement (= % DAT occupancy), Putamen [1, 12]: 66.3% and 55.0% and 41.5% and 72.8%
- Percent maximum displacement (= % DAT occupancy), Caudate\Putamen mean, Mean ± SD ([1]; DAS 0.2 mg/kg i.v. 3 min bolus): 68% and 68.13 ± 10.30%
- Percent maximum displacement (= % DAT occupancy), Caudate nucleus [1, 13]: 64.8% and 67.9% and 70.1% and 50.7%
- Percent maximum displacement (= % DAT occupancy), Caudate\Putamen mean [1, 13]: 76% and 72.5% and 71% and 53%
- Percent maximum displacement (= % DAT occupancy), Putamen [1, 13]: 87.3% and 77.1% and 72% and 55.3%
- Percent maximum displacement (= % DAT occupancy), Caudate nucleus [1, 14]: 83.7% and 82.0%
- Percent maximum displacement (= % DAT occupancy), Caudate\Putamen mean [1, 14]: 81.6% and 85.6% and 81.7%
- Percent maximum displacement (= % DAT occupancy), Putamen [1, 14]: 87.4% and 81.3%
- Percent maximum displacement (= % DAT occupancy), Caudate\putamen mean, Mean ([1]; DAS 6.0 mg, bolus plus 4-step infusion over 40 min): 83.6%
- Brain entry / DAT occupancy rate slower than MPH ([1]; i.v. administration, DAS relative to MPH): ~ 7 fold and 5-11 fold
- DAT RO50 from this study ([1]; rhesus monkey, plasma level): 3.5 ng/mL
- t1/2 (elimination) ([2]; human, in vivo, po): 47 to 77 h
- tmax ([2]; oral administration in humans): 10 to 12 h
